Results taken from patent US20120315342A1, “EPITHELIAL CELL-CELL ADHESION ENHANCER, AND AMELIORATING, THERAPEUTIC OR PROPHYLACTIC AGENT FOR ALLERGIC DISEASES USING SAME” (Tokai Medical Test Laboratory Co., priority 2010, published 2012).

Columns and labels:
Assay type in all cases: cell-based
[1] = system: Caco-2 cells; test: Recovery of TEER after decreased epithelial cell-cell adhesion caused by extracellular calcium deficiency (Examples 1-3); details: for recovery of TEER in comparison with the negative control group / recovery-promoting effect on TEER in comparison with the positive control group: Example 1, FIG. 1, 1 wt. % in calcium-containing DMEM after 2 h calcium-free DMEM, n=3
Text: (§1) The oligosaccharide containing 1-kestose used in the present Example 1 is composed of 98 wt. % 1-kestose, 1 wt. % nystose, and 1 wt. % sucrose. Namely, it is an oligosaccharide containing 1-kestose at a purity of 98 wt. %. Also, as the index for the cell-cell adhesion strength in cultured cells, transepithelial electrical resistance (TEER) was used. This measurement method utilizes a property that the stronger the epithelial cell-cell adhesion, the bigger the electrical resistance value between the upper layer and the lower layer of the cell culture medium, and this technique is also employed for a model experiment using epithelial cells and the like.
(§2) Caco-2 cells, which are the epithelial colorectal carcinoma cells, were subcultured in a 10% FES-containing DMEM medium (GIBCO), and the 48th generation of cultured cells were cryopreserved and used for the following experiments. The Caco-2 cells were seeded in the upper layer of a Transwell (Corning Life Sciences) and cultured in an incubator in 5% CO2 at 37° C. in the presence of a 10% FBS-containing DMEM medium. Cell culture was performed until the electrical resistance between the upper layer and the lower layer of the Transwell (TEER) reached 400 to 500 Ω·cm^2.
The Caco-2 cells that were cultured until TEER of the Transwell reached 400 to 500 Ω·cm^2 were cultured for two hours after exchanging the 10% FES-containing DMEM medium for a calcium-free DMEM medium. Subsequently, a calcium-containing DMEM medium to which an oligosaccharide containing 1-kestose, or nystose, was added at a concentration of 1 wt. % was added to the upper layer. Then, TEER was chronologically measured every half hour, and the cells were cultured up to 22 hours and then TEER was measured (1% kestose group, 1% nystose group, n=3). As the control group, a group of cells that were cultured only in a calcium-free DMEM medium (negative control group, n=3) and a group in which culture was performed for two hours in a calcium-free DMEM medium, and then the medium was only exchanged for a calcium-containing DMEM medium (positive control group, n=3) were prepared, and chronological changes in TEER were compared.
The Caco-2 cells that were cultured until TEER of the Transwell reached 400 to 500 Ω·cm^2 were cultured for two hours after exchanging the 10% FBS-containing DMEM medium for a calcium-free DMEM medium. Subsequently, a calcium-containing DMEM medium to which an oligosaccharide containing 1-kestose was added at a concentration of 1 wt. % was added to the upper layer. Then, TEER was chronologically measured every half hour, and the cells were cultured up to three hours and then TEER was measured (calcium (+) 1% kestose group, n=3). Also, a group in which an oligosaccharide containing 1-kestose was added at a concentration of 1 wt. % to the calcium-free DMEM medium, while the medium was not exchanged for a calcium-containing DMEM medium, and cell culture was performed up to three hours and then TEER was measured was prepared (calcium (−) 1% kestose group, n=3). As the control group, a group of cells that were cultured only in a calcium-free DMEM medium (negative control group, n=3) and a group in which culture was performed for two hours in a calcium-free DMEM medium, and then the medium was only exchanged for a calcium-containing DMEM medium (positive control group, n=3) were prepared, and chronological changes in TEER were compared.
The Caco-2 cells that were cultured until TEER of the Transwell reached 400 to 500 Ω·cm^2 were cultured for two hours after exchanging the 10% FBS-containing DMEM medium for a calcium-free DMEM medium. Subsequently, a calcium-containing DMEM medium to which an oligosaccharide containing 1-kestose was added at a concentration of 1 wt. % or 0.1 wt. % was added to the upper layer. Then, TEER was chronologically measured every half hour, and the cells were cultured up to 3.5 hours and then TEER was measured (1% kestose group, 0.1% kestose group, n=3). […]

[2] = system: Caco-2 cells; test: Prior administration of 1-kestose, inhibition of TEER decrease caused by extracellular calcium deficiency (Example 4); details: for TEER right before exchanging the medium for calcium-free DMEM, versus negative and positive control groups: 1 wt. %; for decrease in TEER after exchange for calcium-free DMEM and elimination of 1-kestose, versus negative control group: 1 wt. % prior administration
Text: as §1, §2
The Caco-2 cells were cultured until TEER of the Transwell reached 400 to 500 Ω·cm^2. The 10% FES-containing DMEM medium was exchanged for a […] DMEM medium, and an oligosaccharide containing 1-kestose was added at a concentration of 1 wt. % to the upper layer. The medium was exchanged for a calcium-free medium one hour or six hours later, and TEER was chronologically measured three times, every half hour (1-hour calcium (+) 1% kestose group, 6-hour calcium (+) 1% kestose group, n=3). As the control group, a group in which culture was performed for one hour or six hours in a calcium- containing DMEM medium, and then in a calcium-free DMEM medium (1-hour calcium (+) negative control group, 6-hour calcium (+) negative control group, n=3) and a group of cells that were cultured only in a calcium-containing DMEM medium (positive control group, n=3) were prepared, and chronological changes in TEER were compared.

[3] = system: Caco-2 cells; test: Lucifer Yellow permeation from upper to lower layer after extracellular calcium deficiency (Example 5); details: Example 5, FIG. 6, 3 h; for residual concentration of Lucifer Yellow in the lower layer compared to the negative control group: 1 wt. % in calcium-containing medium, Lucifer Yellow in upper layer
Procedure: as §2
The Caco-2 cells that were cultured until TEER of the Transwell reached 400 to 500 Ω·cm^2 were cultured for two hours after exchanging the 10% FBS-containing DMEM medium for a calcium-free colorless HESS medium (GIBCO). Subsequently, a calcium-containing colorless HESS medium (GIBCO) to which an oligosaccharide containing 1-kestose, sucrose, or nystose was added at a concentration of 1 wt. % was added to the upper layer. At the same time, Lucifer Yellow (MP Biomedical LLC.) was added to the upper layer at a concentration of […] as a substance passing between the cells. After culturing for three hours, the HBSS medium in the lower layer was collected, and the residual concentration of Lucifer Yellow that had permeated from the upper layer to the lower layer was measured (1% kestose group, 1% sucrose group, and 1% nystose group, n=3). As the control group, a group of cells cultured only in a calcium-free HBSS medium (negative control group, n=3) and a group in which culture was performed for two hours in a calcium-free HBSS medium, and then the medium was only exchanged for a calcium-containing HBSS medium (positive control group, n=3) were prepared, and the amounts of substances that passed between the cells were compared.

[4] = system: Caco-2 cells; test: Inhibition of TEER decrease caused by inflammatory cytokine IL-1β (Example 6)
Text: as §1
Caco-2 cells, which are the epithelial colorectal carcinoma cells, were subcultured in a 10% FES-containing DMEM medium (GIBCO), and the 48th generation of cultured cells were cryopreserved and used for the following experiments. […]
To the upper layer of a DMEM medium in which the Caco-2 cells were cultured until TEER of the Transwell reached 400 to 500 Ω·cm^2, an oligosaccharide containing 1-kestose was added at a concentration of 1 wt. %. […] TEER was measured 48 hours later and a ratio of the value thus measured to the initial measured value of TEER was calculated (1% kestose (+), IL-1β(+) group, n=3). […]

[5] = Example 4, FIG. 4, 1-hour calcium (+)
[6] = Example 4, FIG. 5, 6-hour calcium (+)

Row | Structure (SMILES) | recovery of TEER in comparison with the negative control group [1] | recovery-promoting effect on TEER in comparison with the positive control group [1] | promotion of TEER recovery compared to the 1% nystose group ([1]; Example 1, 1 wt. %) | recovery-promoting effect relative to the positive control group, on average ([1]; Example 1, 1 wt. %, 30 minutes after exchanging calcium-free for calcium-containing DMEM) | effect of promoting recovery of TEER in comparison with the positive control group ([1]; Example 2, FIG. 2, calcium (+), 1 wt. %) | recovery of TEER ([1]; Example 2, FIG. 2, calcium (+), 1 wt. % in calcium-containing DMEM, up to 3 h) | recovery of TEER ([1]; Example 2, FIG. 2, calcium (−), 1 wt. % in calcium-free DMEM, up to 3 h) | recovery of TEER ([1]; Example 3, FIG. 3, 0.1 wt. % in calcium-containing DMEM, up to 3.5 h) | promotion of recovery of TEER, 1% group versus 0.1% group ([1]; Example 3, FIG. 3, 1 wt. % compared with 0.1 wt. %) | recovery of TEER ([1]; Example 3, FIG. 3, 1 wt. % in calcium-containing DMEM, up to 3.5 h) | TEER right before exchanging the medium for calcium-free DMEM, versus negative and positive control groups [2, 5] | decrease in TEER after exchange for calcium-free DMEM and elimination of 1-kestose, versus negative control group [2, 5] | TEER right before exchanging the medium for calcium-free DMEM, versus negative and positive control groups [2, 6] | decrease in TEER after exchange for calcium-free DMEM and elimination of 1-kestose, versus negative control group [2, 6] | residual concentration of Lucifer Yellow in the lower layer compared to the negative control group [3] | residual concentration of Lucifer Yellow in the lower layer compared to the positive control group ([3]; 1 wt. %) | residual concentration of Lucifer Yellow in the lower layer, rank among all groups ([3]; 1 wt. %) | average TEER ratio (to the initial measured value of TEER) ([4]; Example 6, FIG. 7, 1 wt. % for 24 h, then IL-1β 10 ng/mL in lower layer, measured 48 h later, n=3) | inhibition of the decrease of TEER ([4]; Example 6, 1 wt. %, IL-1β 10 ng/mL, 48 h)
1 | OC[C@H]1O[C@@](CO)(OC[C@@]2(O[C@H]3O[C@H](CO)[C@@H](O)[C@H](O)[C@H]3O)O[C@H](CO)[C@@H](O)[C@@H]2O)[C@@H](O)[C@@H]1O [1-kestose] | significant recovery of TEER | significant recovery-promoting effect | tendency of stronger promotion of recovery | 2.4 times | significant effect of promoting recovery of TEER | significant recovery of TEER | Recovery of TEER was hardly observed | significant recovery of TEER | tendency of stronger promotion of recovery of TEER | significant recovery of TEER | significant increase in TEER | tendency that a decrease in TEER in the 1-hour calcium (+) 1% kestose group was inhibited | significant increase in TEER | tendency that a decrease in TEER in the 6-hour calcium (+) 1% kestose group was inhibited | significant reduction in the residual concentration | further reduced residual concentrations | lowest residual concentration | 0.849 | approximately 26%
2 | OC[C@H]1O[C@@](CO)(OC[C@@]2(OC[C@@]3(O[C@H]4O[C@H](CO)[C@@H](O)[C@H](O)[C@H]4O)O[C@H](CO)[C@@H](O)[C@@H]3O)O[C@H](CO)[C@@H](O)[C@@H]2O)[C@@H](O)[C@@H]1O [nystose] | significant recovery of TEER | significant recovery-promoting effect | – | – | – | – | – | – | – | – | – | – | – | – | significant reduction in the residual concentration | further reduced residual concentrations | – | – | –
